From patent publication US9364479B2, “Use of a receptor-type kinase modulator for treating polycystic kidney disease” (SYMPHONY EVOLUTION, INC., priority 2010, dated 2016) come the findings set out here.

Marks after values point to notes of the source that are not given here.

Experiment [1] deals with Phospho ERK Thr203/Tyr204. The experiment can be described thus: Immunohistochemical analysis of phosphorylation in H1975 xenografts. The following applies: 14-day dosing. It counts as in vivo, mouse. The protocol: For immunohistochemical analysis of H1975, MDA-MB-231 and other xenografts, tumors were excised after euthanasia and fixed in zinc fixative (BD Biosciences) for 48 h before being processed into paraffin blocks. Serial sections at 5 μm were obtained from the area of largest possible surface for each tumor and stained using standard methods. The following antibodies were used: Ki67 (SP6; Labvision), CD31 (MECA.32; BD Biosciences), pERK^Thr202/Tyr204 (phospho-p44/42 mitogen-activated protein kinase; Cell Signaling Technology), pAKT^Ser473 (Cell Signaling Technology), and pEGFR^Tyr1068 (Cell Signaling Technology). For immunofluorescent staining, sections were then incubated with Alexa 594-conjugated goat anti-rabbit secondary antibody (Invitrogen) and mounted in Fluorescent Mounting Medium (DAKO) containing 4′,6-diamidino-2-phenylindole (Molecular Probes) as a nuclear counterstain. Fluorescent staining was visualized using a Zeiss Axiolmager and digitally captured using a Zeiss high-resolution camera coupled to AxioVision image analysis software. Two to three nonoverlapping representative fields were captured at ×200 or ×400 magnification depending on histologic readout and quantified using the integrated morphometric analysis functions in Metamorph software (Universal Imaging Corp.). Apoptotic cells were detected using terminal deoxynucleotidyl transferase-mediated dUTP nick end labeling in situ cell death detection kit according to the manufacturer's instructions (Roche Diagnostics GmbH).
CD31-positive tumor vessels, Ki67-positive proliferating cells, and pERK staining in each tumor section were identified and quantified using the integrated morphometric analysis functions in the ACIS automatic cellular imaging system (Clarient, Inc.) and reviewed by a blinded observer. Number of CD31-positive vessels were identified across 5 to 10 randomly chosen fields of equal size at ×100 magnification in viable tumor tissue and calculated as number of vessels per square millimeter for each tumor, averaged for each treatment group, and compared with vehicle-treated controls. Percentage Ki67-positive cells were calculated as the ratio between Ki67-positive cells divided by the total number of cells identified across 5 to 10 randomly chosen fields of equal size in viable tumor tissue. The results for each tumor and treatment group were averaged and compared with vehicle-treated controls. The level of pERK staining was determined as described above and calculated as the ratio of antibody staining divided by the total number of cells identified, averaged for each treatment group, and compared with vehicle-treated controls.
Results are presented as mean±SD or SE as indicated for each graph or table. For IC50 comparison in the A431 cell viability experiment, two sample Student's t tests were applied to determine P values for each IC50 pair assuming that the random fluctuations of replicates around the dose-response curve are distributed [log]normally with the individual replicates used as the ‘sample size’ for the t test (nine point dose response done in triplicate). For statistical analysis of immunohistochemical results from in vivo studies, two-tailed Student's t test analysis and Bonferroni correction were done to identify significant differences compared with vehicle control group (multiple use of a single vehicle control group) with a cumulative minimal requirement of P<0.05.

A further experiment has as its target ErbB2 (Homo sapiens, UniProt P04626). The experiment can be described thus: ErbB2 autophosphorylation ELISA, BT474 cells. The following applies: read-out: Cellular IC50, autophosphorylation. It counts as cell-based. On the technique in general: ELISA stands for enzyme-linked immunosorbent assay.
The target in experiment [2] is T1, Cholecystokinin, CCK2 (CCKB) (Homo sapiens, UniProt P32239).
T1 construct: NovaScreen
Nature of the experiment: NovaScreen assay. Particulars: read-out: Inhibition, 10 μM XL-647. Type of experiment: binding.

The target of a further experiment is T2, Neurokinin, NK3 (NKB) (Homo sapiens, UniProt P29371).
T2 construct: NovaScreen
Nature of the experiment: NovaScreen assay. It counts as binding. The following applies: read-out: Inhibition, 10 μM XL-647.

The next experiment concerns the target T3, Acetylcholinesterase (Homo sapiens, UniProt P22303).
T3 construct: NovaScreen
Nature of the experiment: NovaScreen assay. The following applies: read-out: Inhibition, 10 μM XL-647. Type of experiment: biochemical.

Another experiment deals with T4, Testosterone (cytosolic) (Homo sapiens, UniProt P10275).
T4 construct: NovaScreen
Nature of the experiment: NovaScreen assay. It counts as binding. Particulars: read-out: Inhibition, 10 μM XL-647.

In experiment [3] the target is T5, Muscarinic, M2 (Human Recombinant) (Homo sapiens, UniProt P08172).
T5 construct: NovaScreen
Nature of the experiment: NovaScreen assay. It counts as binding.

The target of experiment [4] is T6, panel of pharmacological targets, including receptors, transporters, and enzymes.
T6 construct: IC50 values; other: muscarinic receptors, α2-adrenergic receptor and dopamine transporter
The experiment can be described thus: NovaScreen panel, overall statements. Type of experiment: binding. The following applies: muscarinic receptors, α2-adrenergic receptor and dopamine transporter.

The test system of experiment [5] is panel of pharmacological targets, including receptors, transporters, and enzymes. Nature of the experiment: NovaScreen panel, overall statements. Type of experiment: binding. The following applies: single in vitro concentration of 10 μM.
Another experiment deals with Tie-2 (Homo sapiens, UniProt Q02763). The experiment can be described thus: Radiometric kinase assay. Type of experiment: biochemical. How it is done:
(§1) A radiometric ^33P-Phosphoryl transfer kinase assay was used to measure EphB4, insulin-like growth factor-I receptor (IGFR-1), and insulin receptor (IRK) activity. Reactions were performed in 384-well white, clear bottom, high-binding microtiter plates (Greiner). Plates were coated with 2 μg/well peptide substrate in a 50 μL volume. […] The coated plates were washed once with 50 μL assay buffer following overnight incubation at room temperature. Test compound and either 5 nmol/L EphB4 (residues E605-E890 of human EphB4 containing a six histidine NH2-terminal tag, expressed in a baculovirus expression system and purified using metal chelate chromatography), 4 nmol/L insulin-like growth factor-I receptor (residues M954-C1367 of human insulin-like growth factor-I receptor, Proqinase GmbH), or 15 nmol/L insulin receptor 1 (residues P948-S1343 of human insulin receptor 1, Proqinase) were combined with [^33P]g-ATP (5 μmol/L, 3.3 μCi/nmol) in a total volume of 20 μL. The reaction mixture was incubated at room temperature for 1.5 to 2.5 h and terminated by aspiration. The microtiter plates were subsequently washed six times with 0.05% Tween-PBS buffer. Scintillation fluid (50 μL/well) was added and incorporated ^33P was measured by liquid scintillation spectrometry using a MicroBeta scintillation counter (Perkin-Elmer). […]

The next experiment deals with Flt1 (Homo sapiens, UniProt P17948). Nature of the experiment: Radiometric kinase assay. Type of experiment: biochemical. The protocol:
as §1

The next experiment has as its target EGFR L861Q (pCMV/Lx-1) (Homo sapiens, UniProt P00533, L861Q). The experiment can be described thus: EGFR phosphorylation ELISA in transfected Lx-1 cells.

T5 sequence (P08172 whole entry): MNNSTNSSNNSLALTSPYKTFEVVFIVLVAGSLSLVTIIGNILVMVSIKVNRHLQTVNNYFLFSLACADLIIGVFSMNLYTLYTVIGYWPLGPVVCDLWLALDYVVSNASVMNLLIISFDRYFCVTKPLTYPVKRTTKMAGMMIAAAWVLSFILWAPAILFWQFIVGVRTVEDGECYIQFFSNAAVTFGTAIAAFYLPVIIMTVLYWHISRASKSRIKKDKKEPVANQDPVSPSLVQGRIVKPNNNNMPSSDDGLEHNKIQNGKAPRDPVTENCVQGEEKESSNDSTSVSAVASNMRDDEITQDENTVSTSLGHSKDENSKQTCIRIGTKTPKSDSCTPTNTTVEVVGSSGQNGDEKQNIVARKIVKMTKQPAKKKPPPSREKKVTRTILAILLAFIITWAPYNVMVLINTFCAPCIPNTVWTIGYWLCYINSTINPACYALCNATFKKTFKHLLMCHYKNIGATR
Sequence of Flt1 (P17948 27-1338): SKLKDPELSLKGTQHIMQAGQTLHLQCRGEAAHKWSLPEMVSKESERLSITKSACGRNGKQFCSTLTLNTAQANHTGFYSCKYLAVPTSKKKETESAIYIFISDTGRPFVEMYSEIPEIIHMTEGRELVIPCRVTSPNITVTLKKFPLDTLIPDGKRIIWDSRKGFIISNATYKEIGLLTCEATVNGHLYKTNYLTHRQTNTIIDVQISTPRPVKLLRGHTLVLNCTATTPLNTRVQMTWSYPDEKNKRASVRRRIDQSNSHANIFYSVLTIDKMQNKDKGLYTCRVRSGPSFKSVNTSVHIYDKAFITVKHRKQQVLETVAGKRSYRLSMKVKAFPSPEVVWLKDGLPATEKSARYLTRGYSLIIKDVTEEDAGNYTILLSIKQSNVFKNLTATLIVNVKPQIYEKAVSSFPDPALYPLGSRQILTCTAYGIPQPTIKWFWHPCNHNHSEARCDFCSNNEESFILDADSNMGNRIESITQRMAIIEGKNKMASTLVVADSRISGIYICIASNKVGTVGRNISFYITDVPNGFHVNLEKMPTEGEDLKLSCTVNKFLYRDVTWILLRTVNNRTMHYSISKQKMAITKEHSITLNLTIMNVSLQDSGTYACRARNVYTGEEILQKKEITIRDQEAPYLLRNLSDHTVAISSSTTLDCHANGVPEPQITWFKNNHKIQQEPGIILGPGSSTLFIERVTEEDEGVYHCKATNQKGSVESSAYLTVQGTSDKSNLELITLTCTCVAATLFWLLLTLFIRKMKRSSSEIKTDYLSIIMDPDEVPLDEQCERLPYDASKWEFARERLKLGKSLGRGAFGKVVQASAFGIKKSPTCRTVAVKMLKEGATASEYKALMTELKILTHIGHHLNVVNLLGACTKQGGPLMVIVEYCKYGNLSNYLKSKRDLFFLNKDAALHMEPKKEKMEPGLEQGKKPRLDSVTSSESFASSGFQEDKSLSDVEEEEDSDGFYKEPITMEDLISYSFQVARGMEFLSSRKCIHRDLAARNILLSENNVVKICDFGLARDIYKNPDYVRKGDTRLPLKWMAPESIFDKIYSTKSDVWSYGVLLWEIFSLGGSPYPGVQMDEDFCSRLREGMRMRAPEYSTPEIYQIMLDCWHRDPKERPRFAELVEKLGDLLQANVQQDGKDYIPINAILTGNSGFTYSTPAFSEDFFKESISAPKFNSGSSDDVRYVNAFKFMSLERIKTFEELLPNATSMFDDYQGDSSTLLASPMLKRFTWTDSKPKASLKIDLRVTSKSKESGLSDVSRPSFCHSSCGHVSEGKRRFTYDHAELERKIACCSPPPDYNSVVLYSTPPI
T2 sequence (P29371 whole entry): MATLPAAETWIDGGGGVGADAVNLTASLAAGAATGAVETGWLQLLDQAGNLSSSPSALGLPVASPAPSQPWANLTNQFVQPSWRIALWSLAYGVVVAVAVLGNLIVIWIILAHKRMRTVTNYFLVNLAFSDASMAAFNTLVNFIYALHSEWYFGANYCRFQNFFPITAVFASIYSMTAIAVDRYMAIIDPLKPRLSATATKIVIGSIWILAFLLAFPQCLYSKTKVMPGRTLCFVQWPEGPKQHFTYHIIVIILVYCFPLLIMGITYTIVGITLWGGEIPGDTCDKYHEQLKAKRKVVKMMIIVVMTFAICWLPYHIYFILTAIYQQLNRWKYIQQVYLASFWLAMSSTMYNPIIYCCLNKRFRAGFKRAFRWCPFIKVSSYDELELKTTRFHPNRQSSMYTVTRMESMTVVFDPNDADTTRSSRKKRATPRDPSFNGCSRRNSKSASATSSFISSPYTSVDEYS
T3 sequence (P22303 32-614, species assumed): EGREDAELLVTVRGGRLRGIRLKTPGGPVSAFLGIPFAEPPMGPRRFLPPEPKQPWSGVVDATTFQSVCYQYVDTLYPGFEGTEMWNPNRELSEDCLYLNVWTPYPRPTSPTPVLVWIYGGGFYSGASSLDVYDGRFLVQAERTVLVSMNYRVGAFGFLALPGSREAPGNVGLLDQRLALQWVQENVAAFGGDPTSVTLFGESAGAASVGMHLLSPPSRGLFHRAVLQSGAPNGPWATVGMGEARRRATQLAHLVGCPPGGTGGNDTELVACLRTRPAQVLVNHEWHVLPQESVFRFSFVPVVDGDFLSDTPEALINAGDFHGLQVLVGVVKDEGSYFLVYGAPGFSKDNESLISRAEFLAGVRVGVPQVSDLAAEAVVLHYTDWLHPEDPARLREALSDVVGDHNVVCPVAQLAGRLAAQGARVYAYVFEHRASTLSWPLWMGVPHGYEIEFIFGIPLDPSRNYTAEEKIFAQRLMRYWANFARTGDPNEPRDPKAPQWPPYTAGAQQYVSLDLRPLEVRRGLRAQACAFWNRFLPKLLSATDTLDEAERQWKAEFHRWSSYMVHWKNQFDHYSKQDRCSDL
Sequence of EGFR L861Q (pCMV/Lx-1) (P00533 25-1210 L861Q): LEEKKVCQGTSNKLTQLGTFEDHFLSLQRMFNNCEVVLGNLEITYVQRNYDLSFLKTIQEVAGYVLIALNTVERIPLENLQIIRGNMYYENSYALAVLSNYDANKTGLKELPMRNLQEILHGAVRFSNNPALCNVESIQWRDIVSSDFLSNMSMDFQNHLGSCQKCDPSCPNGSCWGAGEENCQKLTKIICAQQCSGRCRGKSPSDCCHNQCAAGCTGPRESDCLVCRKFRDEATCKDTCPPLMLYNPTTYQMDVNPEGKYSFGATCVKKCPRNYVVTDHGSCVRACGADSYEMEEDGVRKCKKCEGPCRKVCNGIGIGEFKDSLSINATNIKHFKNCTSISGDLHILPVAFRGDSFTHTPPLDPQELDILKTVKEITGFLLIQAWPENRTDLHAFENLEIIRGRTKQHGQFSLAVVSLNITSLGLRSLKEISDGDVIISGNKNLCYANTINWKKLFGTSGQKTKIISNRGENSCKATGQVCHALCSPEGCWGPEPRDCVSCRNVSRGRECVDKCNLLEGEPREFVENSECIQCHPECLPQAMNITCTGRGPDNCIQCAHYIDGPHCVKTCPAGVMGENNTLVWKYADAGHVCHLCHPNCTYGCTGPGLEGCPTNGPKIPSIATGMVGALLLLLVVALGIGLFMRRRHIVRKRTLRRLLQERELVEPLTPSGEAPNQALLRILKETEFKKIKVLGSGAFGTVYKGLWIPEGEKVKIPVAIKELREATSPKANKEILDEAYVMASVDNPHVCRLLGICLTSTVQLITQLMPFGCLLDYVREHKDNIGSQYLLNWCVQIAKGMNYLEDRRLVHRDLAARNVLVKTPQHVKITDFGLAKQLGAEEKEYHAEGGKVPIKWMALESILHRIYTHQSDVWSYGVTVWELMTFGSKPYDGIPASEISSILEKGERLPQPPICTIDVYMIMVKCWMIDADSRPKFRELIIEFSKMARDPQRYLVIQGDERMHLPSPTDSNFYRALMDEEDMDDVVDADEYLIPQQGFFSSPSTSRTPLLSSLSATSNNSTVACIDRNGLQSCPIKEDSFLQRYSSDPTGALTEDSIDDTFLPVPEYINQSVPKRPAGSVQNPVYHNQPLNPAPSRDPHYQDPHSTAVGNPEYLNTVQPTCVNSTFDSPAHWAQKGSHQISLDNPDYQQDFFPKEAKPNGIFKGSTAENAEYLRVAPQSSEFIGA
T1 sequence (P32239 whole entry): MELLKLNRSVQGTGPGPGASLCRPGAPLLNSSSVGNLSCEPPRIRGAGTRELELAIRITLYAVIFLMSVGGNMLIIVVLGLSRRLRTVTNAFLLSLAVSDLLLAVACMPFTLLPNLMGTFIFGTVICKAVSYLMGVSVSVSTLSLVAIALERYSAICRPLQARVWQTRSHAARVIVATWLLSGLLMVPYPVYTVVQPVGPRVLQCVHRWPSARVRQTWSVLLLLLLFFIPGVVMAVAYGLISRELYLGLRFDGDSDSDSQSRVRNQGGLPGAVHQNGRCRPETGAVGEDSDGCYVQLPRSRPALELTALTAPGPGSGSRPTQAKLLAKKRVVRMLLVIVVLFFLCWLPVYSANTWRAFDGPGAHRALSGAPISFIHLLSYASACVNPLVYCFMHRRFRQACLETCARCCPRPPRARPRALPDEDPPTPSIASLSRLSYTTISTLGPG
Text for EGFR L861Q (pCMV/Lx-1): Lx-1 cells were used because they lack background EGFR activity. A clone corresponding to the longest EGFR isoform (Genbank accession no. NM_005228.3/NP_005219.2 #21-176, Upstate Biotechnology) was used as a template to produce two mutant EGFR genes (coding for L858R and L861Q) by site-directed mutagenesis. The WT and the two sequence-verified mutants were transferred to a COOH-terminal Flag-tagged retroviral cytomegalovirus promoter-driven mammalian expression vector. The two Tet-On expression vectors, EGFR WT (Tet-On) and EGFRvIII (Tet-On), which were COOH-terminally Flag tagged, were generously provided by Dr. Abhijit Guha (University of Toronto, Toronto, Ontario, Canada).
Transient transfections of Lx-1 cells were done using Lipofectamine 2000 (Invitrogen) according to the manufacturer's protocol. For transfections of the WT, L858R, and L861Q constructs, 1 μg plasmid DNA was used for each transfection (each well of a 12-well plate). […]
For the EGFR phosphorylation ELISA, Reacti-Bind streptavidin-coated plates (Pierce) were coated with 2 μg/mL biotin-conjugated anti-Flag antibody (Sigma). […] Horseradish peroxidase activity was determined by reading the plates in a Victor2 plate reader following addition of the ELISA Femto substrate.
Experimental for ErbB2: The ErbB2 autophosphorylation ELISA utilized BT474 (ATCC) cells. Cells were seeded at 3×10^4 cells/well into 96-well microtiter plates (Costar 3904), in 1:1(DMEM:F12K) (Cellgro) containing 10% FBS (Heat-Inactivated, Hyclone), 1% penicillin-streptomycin (Cellgro), 1% NEAA solution (Cellgro), and 2% L-Glutamine (Cellgro). The cells were then incubated at 37° C., 5% CO2 for 40 hr. […] Following treatment, media was removed, the cell monolayer was washed with cold PBS and immediately lysed with cold lysis buffer. Lysates were centrifuged and transferred into blocked (1% BSA) 96-well high-binding plates (Costar 3925) coated with rabbit polyclonal anti-ErbB2 (1.3 μg/ml, Cell Signaling Technology). Plates were then incubated with HRP-conjugated, anti-phosphotyrosine cocktail (1:10,000, Zymed Laboratories, Inc), followed by the addition of a luminol-based substrate solution. Plates were read with a Victor spectrophotometer (Wallac). IC50 values were determined based on total ErbB2 tyrosine phosphorylation with compound treatment versus total ErbB2 tyrosine phosphorylation with no compound treatment.

As usually defined, the IC50 is the concentration needed to halve the response being measured. What is called inhibition is the relative decrease from the control value, in per cent. Regarding `COc1cc2c(Nc3ccc(Cl)c(Cl)c3F)ncnc2cc1OC[C@@H]1C[C@@H]2CN(C)C[C@@H]2C1` [XL-647, N-(3,4-dichloro-2-fluorophenyl)-7-({[(3aR,5r,6aS)-2-methyloctahydrocyclopenta[c]pyrrol-5-yl]methyl}oxy)-6-(methyloxy)quinazolin-4-amine], the “Phospho ERK Thr203/Tyr204 % Cells” value was 20 ± 4.3% in [1] (10 mg/kg), 13 ± 4.9% in experiment [1] (30 mg/kg) and 10 ± 3.7% in experiment [1] (100 mg/kg). The results for the “Phospho ERK Thr203/Tyr204 % Reduction” value in experiment [1] (10 mg/kg), in experiment [1] (30 mg/kg) and in experiment [1] (100 mg/kg) were 11.8%, 41.8^a % and 57.1^a %, respectively. Moreover, the IC50 at ErbB2 was 552 nM; in experiment [3] it was 1180 nM; in experiment [4], 1000 to 2700 nM; against Tie-2, 54 ± 13.4 nM; against Flt1 it was 56.5 ± 15.5 nM; against EGFR L861Q (pCMV/Lx-1), 10 nM. Moreover, the inhibition at 10 µM in experiment [2] came to 17.1%; at Neurokinin, NK3 (NKB) it was 20%; on Acetylcholinesterase it was 49.4%; on Testosterone (cytosolic), 18.1%; in experiment [3] (read-out: Inhibition, 10 μM XL-647), 98.7%. Also, the “interaction with the panel, in words” value in experiment [5] is “interact with very few of the pharmacological targets”.
